The text below walks through data of PMC10424179, “Disrupting Kaposi’s Sarcoma-Associated Herpesvirus (KSHV) Latent Replication with a Small Molecule Inhibitor” (Journal of Medicinal Chemistry, 2023).

Broadly, the Kd is the concentration at which binding is half-saturated.

The target of data set [1] is T1, oligomerization-deficient mutant of a LANA C-terminal protein fragment (aa 1008–1146) (Human herpesvirus 8 (Kaposi's sarcoma-associated herpesvirus), UniProt Q76SB0).
T1 sequence (Q76SB0 1008-1146): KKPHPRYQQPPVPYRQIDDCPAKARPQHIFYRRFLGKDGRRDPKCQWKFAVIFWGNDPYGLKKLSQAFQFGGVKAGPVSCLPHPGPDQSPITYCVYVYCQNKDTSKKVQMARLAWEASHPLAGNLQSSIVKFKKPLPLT
Nature of the data set: Microscale thermophoresis (MST) binding assay. Set-up: species or system Kaposi's sarcoma-associated herpesvirus (KSHV). The conditions noted are these: read-out: KD value (MST); LANA aa 1008–1146 mutant; means of at least three replicates. The source says: (§1) In these assays, an oligomerization-deficient mutant of a LANA C-terminal protein fragment (aa 1008–1146) and an oligonucleotide representing LANA-binding site (LBS) 1 were used, which are convenient to use and handle for the described biophysical methods, while maintaining the essential DNA-binding interface.[25]
(§2) Equation y = A2 + (A1-A2)/(1 + (x/x0)^p)
1.3 Microscale Thermophoresis (MST) Assay
Microscale Thermophoresis Assay was done as mentioned in a previous publication. 2
Background: In MST a laser heats a spot of the sample, and binding alters the fluorescence response.

The target in data set [2] is LANA–DNA interaction (oligomerization-deficient LANA DBD aa 1008–1146 mutant / LBS1) (Human herpesvirus 8 (Kaposi's sarcoma-associated herpesvirus), UniProt Q76SB0). Nature of the data set: Electrophoretic mobility shift assay (EMSA), LANA DBD mutant with LBS1 oligonucleotide. It counts as biochemical, Kaposi's sarcoma-associated herpesvirus (KSHV). As for the experimental part: as §1
Equation y = A2 + (A1-A2)/(1 + (x/x0)^p) […]
(§3) 1.4 Electrophoretic Mobility Shift Assay (EMSA)
(§4) The EMSA was carried out with slight modific ations as described previously 2 based on the assay in Hellert et al. (2013). 3 His-tagged oligomerization-deficient LANA DBD (aa1008-1146) mutant protein or LANA DBD (aa934-1162) wild type protein (200 nM final) was incubated with a 5´-Dy682-labeled double stranded DNA probe (IBA Lifesciences) (20 nM final) for 30 minutes at RT in the dark. The reaction buffer consisted of 30 mM Tris HCl pH 7.5, 50 mM KCl, 10 mM MgCl2, 1 mM DTT, 1 mM EDTA, 10% glycerol, 0.25% Tween20, 0.5 mg/mL BSA and 0.05 mg/mL poly(dI-dC). […]
(§5) dark. 10 µL of the reaction was run on a pre -run native 5% acrylamide gel for 45 minutes at 100V with tris-borate-EDTA buffer. Images of the gels were acquired and analysed with the Odyssey (Licor) using the Image Studio software.
(§6) Fig S2: Gels of EMSA experiments at 250 μM for all compounds (A) and dose-dependent curves for compound 20 using LANA DBD mutant (B) and LANA wildtype (C) as well as LBS1. Values are means […]
(§7) Gleichung y = A2 + (A1-A2)/(1 + (x/x0)^p) […]
(Mobility shift assays separate free from complexed probe on a gel.)

The nature of another data set: Chromatographic LogD7.4. The class given is physicochemical. The note with it: reversed-phase HPLC, NUCLEODUR C18 Pyramid column; pH 7.4, HPLC-MS based; read-out: Chrom. LogD7.4. As for the experimental part: (§8) The next step was an in vitro ADMET profiling of the best seven compounds so far: 9, 11, 14, 19, 20, 21, and 27. The compounds were tested for their kinetic solubility (1% DMSO in PBS, pH 7.4), lipophilicity (chromatographic Log D7.4 value), cellular permeability (using Caco-2 cells), and metabolic stability (using mouse and human liver S9 fractions) (see Table 3). […]
LogD7.4 was analyzed using an HPLC−MS based method. The retention time of 12 compounds with known LogD7.4 was determined and plotted toward their LogD7.4. Linear regression was used to determine the LogD7.4 of unknown compounds. Analysis was performed using a Dionex Ultimate 3000 HPLC system coupled to a TSQ Quantum Access MAX (Thermo Fisher, Dreieich, Germany) with the following conditions: EC150/2 NUCLEODUR C18 Pyramid column, 5 μM (Macherey Nagel, Düren, Germany); eluent A: 50 mM NH4OAc pH 7.4, eluent B: acetonitrile, and flow: 0.6 mL/min. The gradient was set to 0−100% B from 0 to 2.5 min, […]
are means of two replicates. […]

Data set [3] can be described thus: Metabolic stability in human liver S9 fraction. The class given is in vitro ADME. The conditions noted are these: human liver S9, 1 μM compound. As for the experimental part: as §8
1.7 Metabolic Stability in Liver S9 Fractions
For the evaluation of combined phase I and phase II metabolic stability, the compound (1 μM) was incubated with 1 mg/mL pooled mouse liver S9 fraction (Xenotech, Kansas City, USA) or human liver S9 fraction (Corning, USA), 2 mM NADPH, 1 mM UDPGA, 10 mM MgCl 2, 5 mM GSH and 0.1 mM PAPS at 37 °C for 240 min. The metabolic stability of testosterone, verapamil and ketoconazole were determined in parallel to confirm the enzymatic activity of mouse S9 fractions, for human S9 testosterone, diclofenac and propranolol were used. The incubation was stopped after defined time points by precipitation of aliquots of S9 enzymes with 2 volumes of cold acetonitrile containing internal standard (150 nM diphenhydramine). Samples were stored on ice until the end of the incubation and precipitated protein was removed by centrifugation (15 min, 4 °C, 4,000 g). Concentration of the remaining test compound at the different time points was analyzed by HPLC-MS/MS (TSQ Quantum Access MAX, Thermo Fisher, Dreieich, Germany) and used to determine half -life (t1/2). Values are means of three

The target in data set [4] is T2, LANA–DNA interaction (LANA DBD aa934-1162 wild type / LBS1) (Human herpesvirus 8 type P, UniProt Q9QR71).
T2 construct: LANA DBD (aa934-1162) wild type protein (200 nM final) was incubated with
Nature of the data set: EMSA, LANA DBD wild type with LBS1. The class given is biochemical, Kaposi's sarcoma-associated herpesvirus (KSHV). As for the experimental part: as §2
Fig S1: Binding affinity curves via MST for all compounds. Values are means of at least three replicates.
as §3, §4, §5, §6, §7

T2 sequence (Q9QR71 901-1129): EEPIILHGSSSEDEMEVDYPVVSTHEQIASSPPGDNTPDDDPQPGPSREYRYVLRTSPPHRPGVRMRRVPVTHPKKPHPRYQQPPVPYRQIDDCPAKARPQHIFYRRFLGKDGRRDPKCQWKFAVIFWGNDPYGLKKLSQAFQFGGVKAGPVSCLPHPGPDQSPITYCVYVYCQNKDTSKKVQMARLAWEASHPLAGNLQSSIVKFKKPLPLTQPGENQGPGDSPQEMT

Regarding `COc1ccc(-c2cc(C)c(-n3cc(-c4ccc(C(=O)O)cc4)nn3)cn2)c(Cl)c1` [Compound 20], the Kd in data set [1] amounted to 14.1 ± 3.9 µM. For the same molecule, the “Inhibition (EMSA, LBS1) @250 μM” value in data set [2] (compound at 250 μM, LBS1 oligonucleotide, LANA aa 1008–1146 mutant) was found to be 93%. Moreover, the IC50 in data set [2] (read-out: x0 of logistic fit, dose-dependent EMSA curve (converted), Fig S2, LBS1, curve with A2 95.7, assigned to LANA DBD mutant) was 43.7 µM; in data set [4] it was 205 µM. Further, the chromatographic logD in “Chromatographic LogD7.4” worked out at 0.75. In addition, the microsomal CLint at 1 µM in data set [3] (read-out: MetStab Human Liver S9 Clint) was below 5.8 µL/min/mg. The half-life at 1 µM in data set [3] (read-out: MetStab Human Liver S9 t1/2) was above 2 h.
